Assays:
[1] = Reducing ability in DPPH assay; settings: compound 100 μM
Experimental: Previous work has shown that pterins, their dihydro- and their tetrahydro-derivatives can each be antioxidants or pro-oxidants, depending on the particular conditions. In the present study, several assays were used to assess in vitro antioxidant activity in order to obtain representative information; each method involves the generation of a different radical.
Determination of reducing activity using 1,1-diphenyl-2-picrylhydrazyl radical (DPPH)
To a solution of DPPH in absolute ethanol was added an equal volume of the compound to be tested dissolved in DMSO (20 µL). From a stock solution (10 mM) was prepared a final solution of 100 µM for evaluation of the compounds. The absorbance at 517 nm was recorded after 20 and 60 min at room temperature (Table 2).

soybean lipoxygenase = target: T1, soybean lipoxygenase (Glycine max, UniProt P08170); assay: Inhibition of soybean lipoxygenase; format: biochemical; settings: for IC50: sodium linoleate 0.1 mM, read-out: Lipoxygenase inhibitory activity (IC50); for inhibition at 100 µM: compound at 100 µM, read-out: Lipoxygenase inhibitory activity (% at 100 µM)
T1 construct: purchased Sigma
T1 sequence (P08170 1-839): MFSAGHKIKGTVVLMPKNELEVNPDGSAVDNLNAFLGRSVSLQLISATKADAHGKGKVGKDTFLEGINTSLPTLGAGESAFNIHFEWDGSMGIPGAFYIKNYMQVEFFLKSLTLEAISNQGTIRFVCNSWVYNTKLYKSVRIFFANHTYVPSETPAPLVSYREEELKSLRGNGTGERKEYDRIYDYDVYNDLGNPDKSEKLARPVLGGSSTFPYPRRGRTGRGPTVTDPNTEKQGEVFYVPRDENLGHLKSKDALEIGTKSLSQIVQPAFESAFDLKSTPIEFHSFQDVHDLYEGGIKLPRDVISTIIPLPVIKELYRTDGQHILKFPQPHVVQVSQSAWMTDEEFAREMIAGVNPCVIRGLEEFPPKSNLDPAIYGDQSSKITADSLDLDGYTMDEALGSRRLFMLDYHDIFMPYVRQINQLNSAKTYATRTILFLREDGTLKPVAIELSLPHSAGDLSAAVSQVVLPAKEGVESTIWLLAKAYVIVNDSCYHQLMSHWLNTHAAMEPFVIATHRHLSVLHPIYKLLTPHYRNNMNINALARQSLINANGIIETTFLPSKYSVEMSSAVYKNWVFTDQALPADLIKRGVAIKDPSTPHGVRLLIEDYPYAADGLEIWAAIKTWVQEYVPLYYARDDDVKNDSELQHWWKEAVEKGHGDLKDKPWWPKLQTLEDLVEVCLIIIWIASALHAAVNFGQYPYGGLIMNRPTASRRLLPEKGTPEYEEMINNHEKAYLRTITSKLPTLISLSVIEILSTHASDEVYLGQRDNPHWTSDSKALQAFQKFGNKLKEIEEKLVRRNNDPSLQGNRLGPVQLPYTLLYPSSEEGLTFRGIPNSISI
Experimental: The substituted pteridines prepared were assayed for inhibition of soybean lipoxygenase (Table 1) (Supplementary Information). Many studies have used readily obtainable soybean lipoxygenase, which is a homologue of mammalian lipoxygenase and well examined. The availability of soybean LOX and its well-characterized crystal structure led to its use in this study.
Determination of soybean lipoxygenase inhibition
A solution in DMSO of each compound to be tested was incubated at room temperature with sodium linoleate (0.1 mM) and a solution of soybean lipoxygenase (EC 1.13.11.12) (1:9 x 10^4 w/v in saline, 0.2 mL, Sigma). The conversion of sodium linoleate to 13-hydroperoxylinoleic acid was monitored by observation at 234 nm and compared with the value of appropriate standard inhibitor (Table 1).
(§1) IC50 determinations. OriginPro 8 was used to determine IC50 values from the sigmoidal line fitted to a graph of log[concentration] against the average percentage inhibition from two independent experiments, with at least 6 different concentrations. The SEM is the calculated standard error in the IC50 value of the fitted line.

[2] = Inhibition of linoleic acid peroxidation (AAPH); settings: linoleic acid peroxidation initiated by AAPH, 37 °C, pH 7.4
From the text: Azo compounds that generate free radicals through spontaneous thermal decomposition are useful for in vitro studies of free radical production. The water-soluble AAPH has been extensively used as a clean and controllable source of thermally produced alkylperoxyl free radicals. […] Evidently, the presence of 6,7-dimethyl groups on the pteridine ring greatly enhances protection against lipid peroxidation; the nature of the alkyl group and ring size on the 2-substituent has some, but much less, effect. […] The role of lipophilicity (as assessed from calculated clogP values; Table 1) is not clear, but substituent bulk plays a significant role.
Inhibition of linoleic acid peroxidation
Production of conjugated diene hydroperoxide by oxidation of linoleic acid in an aqueous dispersion was monitored at 234 nm. 2,2’-Azobis(2-amidinopropane) dihydrochloride (AAPH) was used as a free radical initiator. This assay was used to follow oxidative changes and to determine the inhibition of the peroxidation of sodium linoleate by each tested compound. A dispersion of sodium linoleate (16 mM, 10 μL) was added to the UV cuvette containing phosphate buffer (0.05 M, 0.93 mL) at pH 7.4 and kept in a thermostat at 37 °C. The oxidation reaction was initiated at 37 °C under air by the addition of AAPH solution (40 mM, 50 μL). Oxidation was carried out in the presence of aliquots (10 μL) of the tested compound. In the assay without antioxidant, lipid oxidation was measured in the presence of DMSO (10 μL). The rate of oxidation at 37 °C was monitored by recording the increase in absorption at 234 nm caused by conjugated diene hydroperoxide formation (Table 2).
as §1

[3] = Competition with DMSO for hydroxyl radicals; settings: compound at 100 µM, Fe3+/ascorbic acid, DMSO 33 mM
Experimental: Competition of the novel pteridine derivatives with dimethyl sulfoxide for hydroxyl radicals was measured. […] The majority of the derivatives were excellent scavengers of hydroxyl radicals with activity higher than the reference compound 6-hydroxy-2,5,7,8-tetramethylchroman-2-carboxylic acid (Trolox).
Competition of pteridine derivatives with DMSO for hydroxyl radicals
Hydroxyl radicals generated by the Fe^3+/ascorbic acid system were detected by determination of formaldehyde produced from the oxidation of DMSO, according to the procedure of Nash. The reaction mixture comprised ethylenediaminetetracetic acid (EDTA) (0.1 mM), Fe^3+ (167 μM), DMSO (33 mM) in phosphate buffer (50 mM, pH 7.4), ascorbic acid (10 mM) and the compound to be tested at 100 µM. After incubation at 37 °C for 30 min the mixture was quenched with aqueous trichloroacetic acid (17% w/v) (Table 2) and the percentage competition of the tested compounds with DMSO for hydroxyl radicals was determined (Table 2).

SMILES | RA (%) 100μM 20 min [1] [%] | RA (%) 100μM 60 min [1] [%] | melting point [°C] | IC50 (soybean lipoxygenase) [µM] | IC50 [2] [µM] | Hydroxyl radicals scavenged (%) [3] [%] | inhibition at 100 µM (soybean lipoxygenase) [%] | IC50 ([2]; listed as 24) [µM]
CC(Cc1ccc(O)c(O)c1)C(C)Cc1ccc(O)c(O)c1 (centres unmarked) [NDGA, Nordihydroguaiaretic acid, reference compound] | 81 | 83 | – | – | – | – | – | –
Cc1nc2nc(N3CCN(C)CC3)nc(NCc3cccs3)c2nc1C [Compound 18g] | 12 | 12 | 89 to 90 | 88.5 ± 1.2 | 0.1 ± 0.01 | 100 | – | –
Cc1c(C)c2c(c(C)c1O)CCC(C)(C(=O)O)O2 (centres unmarked) [Trolox, 6-hydroxy-2,5,7,8-tetramethylchroman-2-carboxylic acid, reference compound] | – | – | – | – | 55.5 | 73 | – | –
CN1CCN(c2nc(NCc3ccco3)c3nccnc3n2)CC1 [Compound 18e] | 10 | 17 | 174 to 175 | – | 0.33 ± 0.03 | 94 | 24 ± 0.3 | –
CN1CCN(c2nc(N3CCN(C)CC3)c3nccnc3n2)CC1 [Compound 9] | 8 | 14 | – | 5 ± 0.1 | 0.73 ± 0.2 | 96 | – | –
COc1ccccc1CNc1nc(N2CCN(C)CC2)nc2nccnc12 [Compound 18b] | 13 | 20 | – | – | 21 ± 0.9 | 90 | 40 ± 0.2 | –
CN1CCN(c2nc(NCc3cccs3)c3nonc3n2)CC1 [Compound 23] | 16 | 18 | – | 74 ± 3.5 | 0.32 ± 0.02 | 94 | – | ~0.3
CN1CCCN(c2nc(NCc3cccs3)c3nccnc3n2)CC1 [Compound 20b] | 15 | 19 | 130 to 131 | 62.5 ± 0.5 | 41 ± 0.3 | 94 | – | –
CN1CCN(c2nc(NCCc3ccccc3)c3nccnc3n2)CC1 [Compound 18c] | 11 | 18 | 127 to 128 | – | 10 ± 0.1 | 97 | 22.5 ± 0.2 | –
OC1CCCN(c2nc(N3CCCC(O)C3)c3nccnc3n2)C1 (centres unmarked) [Compound 13] | 6 | 13 | – | 60 ± 0.3 | 0.33 ± 0.01 | 95 | – | –
Cc1nc2nc(N3CCN(C)CC3)nc(N)c2nc1C [Compound 5b] | 0 | 13 | – | 100 ± 0.3 | 40 ± 0.8 | 94 | – | –
CCN1CCNc2nc(N3CCN(C)CC3)nc(N3CCN(C)CC3)c21 [Compound 10a] | 79 | 81 | 139 to 140 | 5 ± 0.1 | 15 ± 0.2 | 96 | – | –
CCN1CCN(CC)c2c1nc(N1CCN(C)CC1)nc2N1CCN(C)CC1 [Compound 10b] | 98 | 97 | – | 55 ± 0.2 | 10 ± 0.43 | 98 | – | –
CN1CCN(c2nc(N)c3nc(-c4ccccc4)c(-c4ccccc4)nc3n2)CC1 [Compound 5c] | 10 | 6 | 107 to 109 | – | 0.5 ± 0.03 | 100 | 22.5 ± 0.1 | –
CCN1CCN(c2nc(NCc3cccs3)c3nccnc3n2)CC1 [Compound 20a] | 4 | 11 | 148 to 149 | 43 ± 0.7 | 20 ± 0.5 | 92 | – | –

Reference: article PMC5462101 (Future medicinal chemistry, 2015)
